According to ChEMBL document CHEMBL6109085, “Furazanopyrazine-based novel promising anticancer agents interfering with the eicosanoid biosynthesis pathways by dual mPGES-1 and sEH inhibition” (Eur J Med Chem, 2025):

What was measured:
[1] = Microsomal stability in human liver microsomes assessed as half-life preincubated for 5 mins followed by NADPH and UDP-GlcUA addition and measured after 30 to 120 mins by UHPLC analysis; type: ADME, Microsome; settings: time 35-125 min
[2] = Microsomal stability in human liver microsomes assessed as intrinsic clearance preincubated for 5 mins followed by NADPH and UDP-GlcUA addition and measured after 30 to 120 mins by UHPLC analysis; type: ADME, Microsome; settings: time 35-125 min, read-out: CLH
[3] = target: T1, Bifunctional epoxide hydrolase 2 (Homo sapiens) (UniProt P34913); assay: Inhibition of recombinant human sEH extracted from baculovirus infected Sf9 cells using PHOME as substrate at 10 uM preincubated for 15 mins followed by PHOME substrate addition and measured after 60 mins by fluorescence based analysis relative to control; settings: time 75.0 min
T1 sequence (whole entry): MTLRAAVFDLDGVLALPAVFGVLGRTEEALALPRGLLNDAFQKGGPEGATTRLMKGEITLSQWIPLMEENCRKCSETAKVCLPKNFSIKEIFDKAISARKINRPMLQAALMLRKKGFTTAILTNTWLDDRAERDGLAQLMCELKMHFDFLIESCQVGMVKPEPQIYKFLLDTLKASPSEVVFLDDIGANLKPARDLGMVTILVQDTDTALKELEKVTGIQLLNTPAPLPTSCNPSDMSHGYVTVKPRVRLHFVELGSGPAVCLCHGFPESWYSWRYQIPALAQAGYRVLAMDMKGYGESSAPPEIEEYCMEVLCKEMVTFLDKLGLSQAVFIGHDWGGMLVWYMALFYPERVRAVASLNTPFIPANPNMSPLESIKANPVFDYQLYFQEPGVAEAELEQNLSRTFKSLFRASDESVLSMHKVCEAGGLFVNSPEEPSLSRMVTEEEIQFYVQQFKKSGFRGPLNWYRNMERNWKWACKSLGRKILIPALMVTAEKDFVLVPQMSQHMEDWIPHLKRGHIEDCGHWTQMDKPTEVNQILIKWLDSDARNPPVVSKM

HCT-116 = assay: Antiproliferative activity against human HCT-116 cells assessed as reduction in cell survival index incubated for 48 hrs by MTT assay; settings: HCT-116, 48 h
[4] = Cytotoxicity against human HaCaT cells assessed as reduction in cell survival index incubated for 48 hrs by MTT assay; type: toxicity, cell-based

Row | Structure (SMILES) | half-life [1] [h] | microsomal CLint [2] [µL/min/mg] | inhibition [3] [%] | IC50 (HCT-116) [µM] | IC50 at 48 h [4] [µM]
1 | O=C1c2ccc(OCCc3ccc(F)cc3)cc2-c2nc3nonc3nc21 | 0.715 | 32.3 | – | – | –
2 | O=C(Oc1ccc2c(c1)-c1nc3nonc3nc1C2=O)c1ccccc1 | 1.16 | 19.9 | – | – | –
3 | O=C1c2ccc(OCCc3cccc(C(F)(F)F)c3)cc2-c2nc3nonc3nc21 | 2.65 | 8.73 | – | 8.3 | 17

Now from value to compound, other results behind:

Row | half-life [1] [h] | microsomal CLint [2] [µL/min/mg] | inhibition [3] [%] | Structure (SMILES) | IC50 (HCT-116) [µM] | IC50 at 48 h [4] [µM]
4 | 0.075 | 307 | 48 | O=C(COc1ccc2c(c1)-c1nc3nonc3nc1C2=O)OCc1ccccc1 | – | –
5 | 3.97 | 5.82 | – | O=C1c2ccc(OCc3ccc(Br)cc3)cc2-c2nc3nonc3nc21 | – | –
6 | 2.74 | 8.42 | – | O=C1c2ccc(OCc3ccccc3)cc2-c2nc3nonc3nc21 | – | –
7 | 5.43 | 4.25 | – | O=C1c2ccc(OCCCc3ccccc3)cc2-c2nc3nonc3nc21 | 6.4 | 28
